Assay results taken from publication PMC11648822, “Lactam Truncation Yields a Dihydroquinazolinone Scaffold with Potent Antimalarial Activity that Targets PfATP4” (Chemmedchem, 2024).
≈ marks a conversion by molar mass, not a printed value.

Assays:
[1] = test system: P. falciparum Dd2 PfATP4^G358S strain; experiment: PfATP4 drug resistant parasite viability assay (LDH), Dd2 G358S; type: cell-based; conditions: for EC50: Plasmodium falciparum, DD2, 72 h, read-out: Dd2^G358S EC50 (SD)
Procedure: (§1) These assays were performed according to a previously described protocol.[16] Briefly, P. falciparum Dd2 strains treated with compound were incubated for 72 h at 37 °C. After incubating for 72 h, plates were frozen at −80 °C and then thawed at room temperature for at least 2 h. LDH activity, a surrogate for parasite growth was measured by the addition of the Malstst reagent mix, followed by incubation for 30 min and absorbance read using a ClarioStar Microplate reader at 650 nm. Values were normalized to DMSO control as a percentage and EC50 and dose response curves generated using GraphPad Prism.

[2] = test system: P. knowlesi YH1 parasites; experiment: P. knowlesi viability assay (SYBR green); type: cell-based; conditions: Plasmodium knowlesi, 48 h, read-out: P. knowlesi EC50 (SD) YH1
Procedure: These assays were performed as previously described.[16] […] Parasites were synchronised with 5 % (w/v) sorbitol (Sigma‐Aldrich) treatments for ring stages. […] Parasites were grown in 1 % haematocrit, at 1 % and 2 % parasitaemia for P. falciparum and P. knowlesi respectively. […] Parasitaemia was measured using a SYBR DNA staining assay on a fluorometer.[33] After the incubation period, supernatants were removed and well contents were resuspended in PBS.

[3] = Rat hepatocyte stability; type: in vitro ADME; conditions: rat hepatocytes; read-out: Rat Hep CLint
Excerpt: (§2) Human liver microsome stability, rat hepatocyte stability, aqueous solubility and eLogD are platform assays conducted by TCG Lifesciences and undertaken using previously described protocols.[10]

[4] = Human HepG2 cytotoxicity assay (Cell Titre Glo); type: cell-based; conditions: HepG2 cells, growth inhibition at 48 h, 4 replicate experiments, read-out: HepG2 CC50 (SD)
Excerpt: This assay uses Cell TitreGlo as a metabolic maker for human HepG2 cell growth and uses a protocol previously described.[32]

[5] = Aqueous solubility (pH 7.4); type: physicochemical
Excerpt: as §2

[6] = test system: P. falciparum Dd2 PfATP4^triple (I398F, P990R, D1247Y) strain; experiment: PfATP4 drug resistant parasite viability assay (LDH), Dd2 triple; type: cell-based; conditions: Plasmodium falciparum, DD2, 72 h, read-out: Dd2^triple EC50 (SD)
Procedure: as §1

[7] = test system: P. falciparum Dd2 PfATP4^D425E strain; experiment: 'compound 49' resistant parasite viability assay (LDH), Dd2 D425E; type: cell-based; conditions: Plasmodium falciparum, DD2, 72 h, read-out: Dd2^D425E EC50 (SD)
Procedure: as §1

[8] = test system: P. falciparum Dd2 PfATP4^F156L strain; experiment: 'compound 49' resistant parasite viability assay (LDH), Dd2 F156L; type: cell-based; conditions: Plasmodium falciparum, DD2, 72 h, read-out: Dd2^F156L EC50 (SD)
Procedure: as §1

[9] = test system: P. falciparum W2^mef; experiment: Multidrug-resistant parasite viability assay (SYBR green), W2mef; type: cell-based; conditions: Plasmodium falciparum, W2, 72 h, read-out: multidrug resistant P. falciparum strains EC50 (SD) W2^mef
Procedure: These assays were performed as previously described.[16] P. falciparum 3D7 parasites and resistant lines Dd2, W2mef, 7G8, and artemisinin‐resistant Cambodian isolate (Cam3.I (2539T)), and P. knowlesi YH1, were cultured in human O^+ erythrocytes (RBCs) (Australian Red Cross Blood Service), in RPMI‐HEPES culture medium (pH 7.4, 50 μg/mL hypoxanthine, 25 mM NaHCO3, 20 μg/mL gentamicin, 0.5 % Albumax II (GibcoBRL)) (Thermo Fisher Scientific) and maintained in an atmosphere of 1 % O2, 4 % CO2 and 95 % N2. Parasites were synchronised with 5 % (w/v) sorbitol (Sigma‐Aldrich) treatments for ring stages. Growth assays for measuring drug inhibition of in‐cycle, ring to schizont stage parasites have been described previously. Parasites were grown in 1 % haematocrit, at 1 % and 2 % parasitaemia for P. falciparum and P. knowlesi respectively. […] Parasitaemia was measured using a SYBR DNA staining assay on a fluorometer.[33] After the incubation period, supernatants were removed and well contents were resuspended in PBS.

[10] = test system: P. falciparum NF54 female gametes; experiment: Dual gamete formation assay, female; type: cell-based; conditions: Plasmodium falciparum; NF54 stage V gametocytes, 48 h incubation; αPfs25 antibody 24 h after induction
Procedure: (§3) PfATP4 inhibitors are known to block the transmission of parasites from humans to mosquitoes by interfering with both gametocytes and gamete development.[29] We evaluated a subset of truncated analogues against male and female gametes using a previously described assay. In this assay, stage V gametocytes are treated with compounds and then xanthurenic acid is added and a drop in temperature is used to simulate the mosquito gut environment to induce gametogenesis. After 30 min of compound treatment, male gamete viability is determined by microscopy measuring exflagellation, and after 24 h of compound treatment, female viability is measured using a female gamete specific αPfs25 antibody.
(§4) The compounds were evaluated as previously described.[34] Briefly, mature P. falciparum NF54 stage V gametocytes were exposed to compounds for 48 h at 37 °C in 384 well plates in gametocyte culture medium (RPMI 1640 supplemented with 25 mM HEPES, 50 μg mL^−1 hypoxanthine, 4.8 g L^−1 NaHCO3, 2 mM L‐glutamine, 5 % pooled type AB serum, 0.5 % Albumax II (Gibco)) under a 1 % O2/ 3 % CO2/ 96 % N2 environment. Gametogenesis was then triggered by the addition of 10 μL ookinete medium (gametocyte culture medium supplemented with 100 μM xanthurenic acid and 0.27 μg mL^−1 Cy3‐labelled anti‐Pfs25 antibody) to each well at room temperature. Plates were then cooled on a metal block at 4 °C for four min to ensure even cooling and then stabilised for a further 4 min at 28 °C. At 20 min post‐induction, male gametogenesis was recorded in each well by automated brightfield microscopy using a x4 objective lens and 1.5x magnifier (x6 effective magnification). Afterward, plates were incubated in the dark at room temperature for 24 h and then female gametogenesis was recorded in each well by automated fluorescence microscopy (anti‐Pfs25‐positive cells). […] All data was evaluated in comparison to the positive and negative controls to calculate percentage inhibition of male and female gametocytes, and dose response analysis and EC50 calculation were performed using GraphPad Prism.

[11] = test system: P. falciparum (Pf) 3D7 parasites; experiment: P. falciparum LDH viability assay; type: cell-based; conditions: Plasmodium falciparum, 3D7, 72 h, LDH activity at 72 h; mean and SD of 3 independent experiments
Excerpt: This assay is a platform assay conducted at the Walter and Eliza Hall Institute and uses a protocol previously decsribed.[30, 31]

[12] = test system: P. falciparum NF54 male gametes; experiment: Dual gamete formation assay, male; type: cell-based; conditions: Plasmodium falciparum; NF54 stage V gametocytes, 48 h incubation; exflagellation 20 min after induction
Procedure: as §3, §4

[13] = Human liver microsome stability; type: in vitro ADME; conditions: human liver microsomes; read-out: HLM CLint
Excerpt: as §2

[14] = aqueous medium at pH 7.4, pH 7.4, aqueous buffer

| SMILES | EC50 [1] [nM] | EC50 [2] [nM] | hepatocyte CLint [3] [µL/min/1e6 cells] | CC50 at 48 h [4] [nM] | solubility ([5]; aqueous medium (pH 7.4; buffer not named), pH 7.4, aqueous buffer) [µM] | solubility ([5]; aqueous medium at pH 7.4 (buffer not named), pH 7.4, aqueous buffer) [µM] | EC50 [6] [nM] | EC50 [7] [nM] | EC50 [8] [nM] | EC50 [9] [nM] | EC50 [10] [nM] | EC50 [11] [nM] | EC50 [12] [nM] | microsomal CLint [13] [µL/min/mg] | fold less potent against PfATP4^G358S strain relative to the Dd2 parental line ([1]; ratio of EC50s) [fold] | solubility [5, 14] [µM] |
| --- | --- | --- | --- | --- | --- | --- | --- | --- | --- | --- | --- | --- | --- | --- | --- | --- |
| CN1C(=O)c2ccc(Cl)cc2NC1(C)C(=O)Nc1cncc(Cl)c1 (centres unmarked) [Compound 14, 7‐Chloro‐N‐(5‐chloro‐3‐pyridyl)‐2,3‐dimethyl‐4‐oxo‐1H‐quinazoline‐2‐carboxamide] | 61 | 58 | 25 | > 40000 | 5.2 (≈ 1.9 µg/mL) | < 5.2 | 160 | 55 | 89 | 17 | 120 | 33 | 130 | 60 | – | – |
| CN1C(=O)c2ccc(-n3cccn3)cc2NC1(C)C(=O)Nc1cncc(Cl)c1 (centres unmarked) [Compound 33, N‐(5‐Chloropyridin‐3‐yl)‐2,3‐dimethyl‐4‐oxo‐7‐(1H‐pyrazol‐1‐yl)‐1,2,3,4‐tetrahydroquinazoline‐2‐carboxamide] | 537 | 101 | 14 | > 40000 | – | – | 584 | 126 | 125 | 39 | 1000 | 65 | 460 | 37 | 7 | 2.6 (≈ 1.03 µg/mL) |
| COc1cc(F)c2c(c1)NC(C)(C(=O)Nc1cncc(Cl)c1)N(C)C2=O (centres unmarked) [Compound 36, N‐(5‐Chloropyridin‐3‐yl)‐5‐fluoro‐7‐methoxy‐2,3‐dimethyl‐4‐oxo‐1,2,3,4‐tetrahydroquinazoline‐2‐carboxamide] | 41 | 33 | 8 | > 40000 | – | – | 100 | 43 | 47 | 10 | 210 | 21 | 110 | 34 | – | 4 (≈ 1.52 µg/mL) |
